Experimental data as given in publication PMC10224004, “Modulation of Distribution and Diffusion through the Lipophilic Membrane with Cyclodextrins Exemplified by a Model Pyridinecarboxamide Derivative” (Pharmaceutics, 2023).
Read-outs that look alike come from different tables or passages of the source.

What was measured:
[1] = Shake-flask solubility in 1-octanol and dissolution thermodynamics; format: physicochemical; conditions: for solubility higher in 1-octanol than in n-hexane: 310.2 K, ratio of molar solubilities
Description: (§1) The solubility of the investigated drugs in 1-octanol and n-hexane was determined by the shake-flask technique. To this end, the glass vials containing the solutions with the excess amount of the compound were placed in an air thermostat and stirred at a predetermined temperature for no less than 24 h (equilibrium state). After this, the suspensions were left for 5 h or more to precipitate the undissolved drug and centrifuged (Biofuge pico, Thermo Electron LED GmbH, Langenselbold, Germany) at a predetermined temperature during 20 min (10,000 rpm). The aliquots of the clear solutions were taken and examined via a spectrophotometer (Cary-50 Varian, Palo Alto, CA, USA, Software Version 3.00 (339)). The molar concentrations of the compounds in the solvents were calculated using calibration curves at the appropriate wavelength characteristic for each substance. The experimental results were reported as an average of at least three replicated experiments with an accuracy of 2–4%. In order to evaluate the thermodynamic parameters of the IPN dissolution in 1-octanol and n-hexane, the molar solubility ( S2 ) was recalculated to the mole fraction ( X2 ) by the equation:(1) X2=M2S2/S2(M1−M2)+1000ρ, where M1 and M2 are the molar masses of IPN and organic solvent, respectively, and ρ (g∙cm^−3) is the density of the pure solvents. The linear functions describing the temperature dependences of the solubility within the temperature interval from 293.2 ± 0.5 K to 313.2 ± 0.5 K for both organic solvents were derived:(2) lnX2=A+B/T
(§2) The apparent solution enthalpies ΔHsol0 were determined by the van’t Hoff equation:(3) ∂(lnX2)/∂T=ΔHsol0/RT^2
(§3) The apparent dissolution Gibbs energies ( ΔGsol ) and entropies ( ΔSsol ) were calculated at a standard temperature of 298.2 K and 310.2 K:(4) ΔGsol298.2/310.2=−RT(lnX2298.2/310.2) (5) ΔGsol298.2/310.2=ΔHsol0−TΔSsol298.2/310.2 where R is the universal gas constant.

[2] = Shake-flask solubility in n-hexane and dissolution thermodynamics; format: physicochemical; conditions: T 310.2 K; value = S2 × 10^3
Description: as §1, §2, §3

[3] = Shake-flask distribution in the 1-octanol/buffer pH 7.4 system; format: physicochemical; conditions: for Dappoct/buff / logDappoct/buff: 310.2 K, cyclodextrin in buffer phase as in the label; for Molar concentration C2 buf/oct ∙10^3 (aqueous phase) / Molar concentration C2 oct/buf ∙10^3 (organic phase): V(oct):V(buf)= 3:3, molar concentration × 10^3
Description: (§4) Apparent distribution coefficients of the compounds were measured in two systems: 1-octanol/buffer pH 7.4 and n-hexane/buffer pH 7.4 by the shake-flask technique at 310.2 ± 0.5 K in the absence (for IPN, INZ and iNAM) and in the presence of cyclodextrins (HP-β-CD and M-β-CD) in the aqueous phase (for IPN only). The concentrations of cyclodextrins were: 0.0115 M, 0.025 M and 0.035 M. The experiments were carried out according to the literature. In brief, the following experimental procedure was performed. Aqueous buffer pH 7.4 and organic solvent (1-octanol or n-hexane) were mixed during 48 h to obtain mutually saturated phases. The stock solutions containing the drug were prepared in buffer pH 7.4 saturated with the organic solvent. Both aliquots of the aqueous stock solution and organic solvent were placed in screwed glass vials and mixed at 310.2 ± 0.5 K during 3 days. The concentrations of the stock solutions were approximately 6.0 × 10^−3 M for both systems. The volumes of the phases were 3:3 in the 1-octanol/buffer pH 7.4 systems and 6:3 and 10:3 in the n-hexane/buffer pH 7.4 systems, without and with cyclodextrins, respectively. After mixing, the equilibrium was achieved; the vials were maintained at 310.2 ± 0.5 K, and the phases were separated from each other. The drug concentrations were determined using spectrophotometer (Cary-50 Varian, Palo Alto, CA, USA, Software Version 3.00 (339)). The experiments were carried out at least four-fold with an accuracy of 2–4%. The distribution coefficients were calculated using the following equation:(6) DappOrg/buf=C2Org/buf⋅V^buf/Org/C2buf/Org⋅V^Org/buf where DappOrg/buf is the distribution coefficient calculated from the concentrations of the compounds expressed in molar scale, C2Org/buf and C2buf/Org are the molar concentrations of the drug in the mutually saturated organic solvent/buffer and buffer/organic solvent phases, respectively, and V^buf/Org and V^Org/buf are the volumes of the saturated buffer and organic solvent phases, respectively. In addition, the ΔlogD parameters were estimated taking into account the distribution coefficients both in the 1-octanol/buffer pH 7.4 and n-hexane/buffer H 7.4 systems. As Abraham et al. stated, the difference between the distribution parameters in these systems ( ΔlogD ) can be applied to assess the specific interactions including a hydrogen-bonding impact to the drug transport properties and can be calculated as follows:(7) ΔlogD=logDappoct/buf−logDapphex/buf

[4] = Shake-flask distribution in the n-hexane/buffer pH 7.4 system; format: physicochemical; conditions: for logDapphex/buff / Dapphex/buff ·10^4: 310.2 K; for logDapphex/buff: cyclodextrin in buffer phase as in the label; for Dapphex/buff ·10^4: value = D·10^4, cyclodextrin in buffer phase as in the label; for Molar concentration C2 buf/hex ∙10^3 (aqueous phase): V(hex):V(buf)= 6:3 without and 10:3 with cyclodextrins, molar concentration × 10^3
Description: as §4

[5] = ΔlogD parameter (logDapp oct/buf − logDapp hex/buf); format: physicochemical; conditions: 310.2 K; pH 7.4; cyclodextrin in buffer phase as in the label
Description: as §4, with “The volumes of the phases were 3:3 in the 1-octanol/buffer pH 7.4 systems and 6:3 and 10:3 in the n-hexane/buffer pH 7.4 systems, without and with cyclodextrins, respectively. After mixing, the equilibrium was achieved; the vials were maintained at 310.2 ± 0.5 K, and the phases were separated from each other.” left out, “The experiments were carried out at least four-fold with an accuracy of 2–4%.” left out, “In addition, the ΔlogD parameters were estimated taking into account the distribution coefficients both in the 1-octanol/buffer pH 7.4 and n-hexane/buffer H 7.4 systems.” left out

[6] = design: method as in doi:10.1016/j.jct.2015.08.022; conditions: cited from earlier work
[7] = PermeaPad barrier, 310.2 K, cited from earlier work
[8] = Membrane permeability in Franz diffusion cell; format: in vitro ADME; conditions: 310.2 K
Description: Membrane permeability coefficients of the studied drugs were measured in the Franz diffusion cell of vertical type (PermeGear, Inc., Hellertown, PA, USA) with 7 mL/1 mL volumes of the donor and acceptor solutions through the reverse dialysis set up. The PermeaPad barrier (PHABIOC, Fritz-Souchon-Str.27 32339 Espelkamp Germany, www.innome.de) (0.785 cm^2 effective surface area) was mounted between the donor and acceptor chambers of the diffusion cell. The temperature was maintained at 310.2 ± 0.5 K throughout the experiment. Samples of 0.5 mL were withdrawn each 30 min from the acceptor solution and replaced with an equal amount of fresh buffer. Permeability experiments lasted over five hours in all cases. The solutions concentrations were analyzed via spectrophotometer (Spectramax 190; Molecular Devices Corporation, San Jose, CA, USA) in 96-well UV black plates (Costar) at a wavelength of 264 nm and 266 nm for IPN and INZ/iNAM, respectively. The dependences of the amount of the permeated drug over the surface area (dQ/A) on time (t) were plotted and flux (J) across the membrane was calculated by the equation:(11) J=dQ/A×dt The apparent permeability coefficients (Papp) were determined by normalizing the flux measured over the concentration of the drug in the donor compartment (C0) by the equation:(12) Papp=J/C0 Each permeability experiment was carried out in triplicate.
Similarly to the distribution, the permeability coefficients were obtained in the absence (for IPN, and iNAM) and in the presence of cyclodextrins (HP-β-CD and M-β-CD) (for IPN only) in the donor solution. The concentrations of cyclodextrins were 0.0115 M, 0.025 M and 0.035 M. The permeability coefficient for INZ through the PermeaPad barrier was determined in our previous investigation and taken in the present study for the sake of comparison.

solubility higher in 1-octanol than in n-hexane [1] [fold] | Molar solubility S2 × 10^3 in n-Hexane [2] | Dappoct/buff [3] | logDappoct/buff [3] | Molar concentration C2 buf/oct ∙10^3 (aqueous phase) [3] | Molar concentration C2 oct/buf ∙10^3 (organic phase) [3] | logDapphex/buff [4] | Dapphex/buff ·10^4 [4] | Molar concentration C2 buf/hex ∙10^3 (aqueous phase) [4] | ΔlogD [5] | Molar solubility S2 × 10^1 in 1-Octanol ([1]; T 310.2 K, value = S2 × 10^1) | steady penetrate rate - flux J∙10^4 ([8]; PermeaPad barrier, pH 7.4, printed value = J × 10^4, cyclodextrin in donor solution as in the label) | Papp∙10^5 ([8]; PermeaPad barrier, pH 7.4, value = Papp × 10^5, cyclodextrin in donor solution as in the label) | Papp at 5 h ([8]; pH 7.4, PermeaPad barrier, without cyclodextrins, read-out: permeability coefficient (Papp)) [×10⁻⁶ cm/s] | SMILES | TΔSsol298.2 ([6]; 1-octanol, 298.2 K) [kcal/mol] | ΔGsol298.2 ([6]; 1-octanol, 298.2 K) [kcal/mol] | ΔHsol298.2 ([6]; 1-octanol, 298.2 K) [kcal/mol] | Molar solubility S2 × 10^1 in 1-Octanol ([6]; T 310.2 K, value = S2 × 10^1) | Papp∙10^5 ([7]; pH 7.4, value = Papp × 10^5) | permeability coefficient (Papp) ([7]; without cyclodextrins) [×10⁻⁶ cm/s]
130 | 1.37 ± 0.05 × 10^3 (M) | 0.633 ± 0.021 | −0.199 | 5.31 ∙10^3 | 3.36 ∙10^3 | −3.083 | 8.254 ± 0.188 ·10^4 | 9.54 ∙10^3 | 2.88 |  |  |  |  | NNC(=O)c1ccncc1 [INZ, isonicotinic acid hydrazide] | 2.56 | 3.32 | 5.88 | ^a 1.78 ± 0.04 × 10^1 (M) | 1.44±0.08 ∙10^5 (cm∙s‐1) | 14.4
115 | 1.10 ± 0.04 × 10^3 (M) | 0.446 ± 0.013 | −0.351 | 6.33 ∙10^3 | 2.83 ∙10^3 | −3.241 | 5.742 ± 0.172 ·10^4 | 8.64 ∙10^3 | 2.89 | 1.26 ± 0.02 × 10^1 (M) | 0.59 ∙10^4 (μM∙cm‐2∙s‐1) | 0.73±0.04 ∙10^5 (cm∙s‐1) | 7.3 | NC(=O)c1ccncc1 [iNAM, pyridine-4-carboxylic acid amide] |  |  |  |  |  | 
